Key:
Experiment in all cases: relative viability (nuclei count vs DMSO), 5 days (fraction); higher = more cells survive
Idelalisib + Tozasertib = compound: CC[C@H](Nc1ncnc2[nH]cnc12)c1nc2cccc(F)c2c(=O)n1-c1ccccc1 [Idelalisib] + Cc1cc(Nc2cc(N3CCN(C)CC3)nc(Sc3ccc(NC(=O)C4CC4)cc3)n2)n[nH]1 [Tozasertib] (partner 0.1 µM)
How it was run: (§1)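 A single step with final 0.05% Triton X-100, 1% formaldehyde and 1 ug/ml Hoechst fixed the cells and stained nuclei 5 days after treatment. Lung cancer cell lines in 1536-well plates had been treated by pin tool the day after seeding with one drug alone or a fixed anchor-drug dose plus five library-drug doses (not always all listed) in √10 steps, and nuclei were counted on 4× images. Relative viability is the ratio of nuclei in treated wells to nuclei in vehicle wells, taken as the median of duplicate plates.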

Idelalisib + Bortezomib = compound: CC[C@H](Nc1ncnc2[nH]cnc12)c1nc2cccc(F)c2c(=O)n1-c1ccccc1 [Idelalisib] + CC(C)C[C@H](NC(=O)[C@H](Cc1ccccc1)NC(=O)c1cnccn1)B(O)O [Bortezomib] (partner 0.002 µM)
How it was run: as §1

Idelalisib + Luminespib = compound: CC[C@H](Nc1ncnc2[nH]cnc12)c1nc2cccc(F)c2c(=O)n1-c1ccccc1 [Idelalisib] + CCNC(=O)c1noc(-c2cc(C(C)C)c(O)cc2O)c1-c1ccc(CN2CCOCC2)cc1 [Luminespib] (partner 0.01 µM)
How it was run: as §1

Pemetrexed + AZD7762 = compound: Nc1nc2[nH]cc(CCc3ccc(C(=O)N[C@@H](CCC(=O)O)C(=O)O)cc3)c2c(=O)[nH]1 [Pemetrexed] + NC(=O)Nc1cc(-c2cccc(F)c2)sc1C(=O)N[C@H]1CCCNC1 [AZD7762] (partner 0.2 µM)
How it was run: as §1

Cell Line | relative viability (Idelalisib + Tozasertib; first compound 0.04 µM) | relative viability (Idelalisib + Tozasertib; first compound 0.1265 µM) | relative viability (Idelalisib + Tozasertib; first compound 0.4 µM) | relative viability (Idelalisib + Tozasertib; first compound 1.265 µM) | relative viability (Idelalisib + Tozasertib; first compound 4 µM) | relative viability (Idelalisib + Bortezomib; first compound 0.04 µM) | relative viability (Idelalisib + Bortezomib; first compound 0.1265 µM) | relative viability (Idelalisib + Bortezomib; first compound 0.4 µM) | relative viability (Idelalisib + Bortezomib; first compound 1.265 µM) | relative viability (Idelalisib + Bortezomib; first compound 4 µM) | relative viability (Idelalisib + Luminespib; first compound 0.04 µM) | relative viability (Idelalisib + Luminespib; first compound 0.1265 µM) | relative viability (Idelalisib + Luminespib; first compound 0.4 µM) | relative viability (Idelalisib + Luminespib; first compound 1.265 µM) | relative viability (Idelalisib + Luminespib; first compound 4 µM) | relative viability (Pemetrexed + AZD7762; first compound 0.002 µM) | relative viability (Pemetrexed + AZD7762; first compound 0.006325 µM) | relative viability (Pemetrexed + AZD7762; first compound 0.02 µM) | relative viability (Pemetrexed + AZD7762; first compound 0.06325 µM) | relative viability (Pemetrexed + AZD7762; first compound 0.2 µM)
NCI-H661 | 0.414 | 0.358 | 0.391 | 0.358 | 0.408 | 0.679 | 0.658 | 0.496 | 0.661 | 0.628 | 0.985 | 0.907 | 0.85 | 0.987 | 1.04 | – | – | – | – | –
CAL-12T | 0.323 | 0.254 | 0.295 | 0.325 | 0.265 | 1.08 | 1.12 | 0.856 | 1.24 | 0.936 | 0.302 | 0.635 | 0.362 | 0.564 | 0.264 | 0.562 | 0.685 | 0.782 | 0.579 | 0.543
HARA | 0.0983 | 0.113 | 0.121 | 0.0975 | 0.101 | 1.27 | 1.02 | 1.08 | 1.2 | 1.1 | 0.778 | 0.642 | 0.613 | 0.683 | 0.6 | 0.272 | 0.302 | 0.582 | 0.259 | 0.128
NCI-H596 | 0.818 | 1.01 | 0.73 | 0.855 | 0.815 | 1 | 1.04 | 1 | 1.03 | 0.802 | 1.13 | 0.925 | 0.827 | 0.905 | 0.847 | 1.17 | 1.1 | 1.07 | 0.472 | 0.362
LU99A | 0.271 | 0.292 | 0.278 | 0.306 | 0.318 | 1.29 | 1.13 | 1.1 | 1.33 | 1.11 | 0.217 | 0.274 | 0.238 | 0.285 | 0.243 | 0.356 | 0.376 | 0.371 | 0.293 | 0.178
LC-2-ad | 0.44 | 0.455 | 0.374 | 0.397 | 0.457 | 1.02 | 0.971 | 0.938 | 1.11 | 0.992 | 1.17 | 1.06 | 0.886 | 1.14 | 0.957 | 0.726 | 0.816 | 0.43 | 0.276 | 0.233
NCI-H1650 | 0.312 | 0.405 | 0.36 | 0.33 | 0.304 | 0.208 | 0.19 | 0.239 | 0.208 | 0.202 | 0.18 | 0.191 | 0.198 | 0.219 | 0.185 | – | – | – | – | –
NCI-H1915 | 0.55 | 0.406 | 0.374 | 0.407 | 0.402 | 0.968 | 1.03 | 0.928 | 1.04 | 0.997 | 0.843 | 0.809 | 0.759 | 0.878 | 0.83 | 0.6 | 0.638 | 0.751 | 0.599 | 0.652
ABC-1 | 0.146 | 0.154 | 0.186 | 0.219 | 0.196 | 0.327 | 0.243 | 0.309 | 0.326 | 0.288 | 0.466 | 0.643 | – | 0.521 | 0.497 | 0.907 | 0.847 | 0.856 | 0.732 | 0.726
HCC-44 | 0.879 | 1.02 | 0.762 | 0.866 | 0.756 | 0.825 | 0.946 | 0.908 | 0.984 | 0.825 | 1.25 | 1.06 | 0.852 | 1.18 | 1.05 | 0.928 | 1.01 | 0.991 | 1.03 | 0.944
HCC-78 | 0.314 | 0.389 | 0.392 | 0.388 | 0.295 | 0.365 | 0.423 | – | 0.46 | 0.266 | – | – | – | – | – | – | 0.505 | 0.42 | 0.3 | 0.236
LXF-289 | 0.259 | 0.189 | 0.195 | 0.14 | 0.235 | 1.08 | 0.925 | 0.995 | 1.05 | 1.04 | 0.776 | 0.575 | 0.663 | 0.815 | 0.439 | 1.06 | 1.02 | 1.14 | 1.09 | 1.02
201T | 1.07 | 1.01 | 0.785 | 0.947 | 0.667 | 1.1 | 1.07 | 1.1 | 1.13 | 1.08 | 1.12 | 1.07 | 1.02 | 1.02 | 0.849 | 0.606 | 0.612 | 0.725 | 0.512 | 0.374
NCI-H1734 | 0.264 | 0.246 | 0.253 | 0.254 | 0.246 | 0.813 | 1.07 | 0.828 | 0.922 | 0.725 | 0.247 | 0.184 | 0.203 | 0.192 | 0.155 | 0.415 | 0.584 | 0.649 | 0.508 | 0.332
NCI-H1623 | 0.393 | 0.429 | 0.443 | 0.431 | 0.388 | – | – | – | – | – | 0.461 | 0.494 | 0.394 | 0.381 | 0.516 | – | – | – | – | –
NCI-H2126 | 0.838 | 0.905 | 0.765 | 0.813 | 0.626 | 1.14 | 1.15 | 1.13 | 1.14 | 1.21 | 0.929 | 0.893 | 0.802 | 0.961 | 0.929 | 0.904 | 0.954 | 1.06 | 1.01 | 0.879
NCI-H1792 | – | – | – | – | – | 0.552 | 0.952 | 0.844 | 0.968 | 0.843 | 0.408 | 0.434 | – | 0.679 | 0.33 | 0.608 | 0.633 | 0.697 | 0.676 | 0.633
HCC-366 | 0.121 | 0.126 | 0.107 | 0.112 | 0.068 | 1 | 1.11 | 1 | 1.03 | 0.931 | – | – | – | – | – | 0.228 | 0.239 | 0.308 | 0.254 | 0.158

Source: the supplement of paper PMC10307832
